From US9808470B2, “Estrogenic components for use in the treatment of neurological disorders” (UNIVERSITE DE LIEGE, priority 2012, dated 2017)

Experiments:
Type in all cases: in vivo
[1] = tested on: doublecortin (DCX); test: Ex.8 therapeutic HIE rat model: doublecortin staining
Experimental: To study the therapeutic effect of estetrol, newborn rat pups were assigned to one of the following 14 groups at postnatal day 7 (FIG. 23(B)): Sham group (n=12), Vehicle (n=15), 5 mg/kg/day E4 (n=11), 10 mg/kg/day E4 (n=11), 5 mg/kg/day E4+1.6 mg/kg/day PROG (n=11), 10 mg/kg/day E4+1.6 mg/kg/day PROG (n=11), 5 mg/kg/day E4+16 mg/kg/day PROG (n=11), 10 mg/kg/day E4+16 mg/kg/day PROG (n=13), 5 mg/kg/day E4+136 ng//kg/day E2 (n=11), 10 mg/kg/day E4+136 ng/kg/day E2 (n=11), 5 mg/kg/day E4+1.6 mg/kg/day PROG+136 ng/kg/day E2 (n=12), 10 mg/kg/day E4+1.6 mg/kg/day PROG+136 ng/kg/day E2 (n=11), 5 mg/kg/day E4+16 mg/kg/day PROG+136 ng/kg/day E2 (n=11), 10 mg/kg/day E4+16 mg/kg/day PROG+136 ng/kg/day (n=12) groups. […] After surgery, the pups were returned to their dams and allowed to recover for 1 hour. The pups were then placed in a humidified hypoxic in vivo cabinet (CoyLab). […]
(§1) The sections were heated in 10 mmol/L citrate buffer (pH 6.0) at 100° C. for 10 minutes. […] Samples were analyzed with the aid of a microscope (Olympus Vanox AHBT3, Olympus), and the ImageJ software 15 (NIH). The percentage of positively stained cells was quantified as a sum of positively stained either DCX or VEGF cells divided by the total number of DAPI positive cells expressed in percentage.

[2] = tested on: doublecortin (DCX); test: Ex.8 neuroprotective HIE rat model: doublecortin staining; settings: 5 mg/kg/day E4, DG
Experimental: Newborn rat pups were assigned to one of the following 14 groups from postnatal day 4 (FIG. 23(A)): Sham group (n=12), Vehicle group (n=17), 5 mg/kg/day E4 (n=13), 10 mg/kg/day E4 (n=10), 5 mg/kg/day E4+1.6 mg/kg/day PROG (n=11), 10 mg/kg/day E4+1.6 mg/kg/day PROG (n=11), 5 mg/kg/day E4+16 mg/kg/day PROG (n=11), 10 mg/kg/day E4+16 mg/kg/day PROG (n=11), 5 mg/kg/day E4+136 ng//kg/day E2 (n=11), 10 mg/kg/day E4+136 ng/kg/day E2 (n=11), 5 mg/kg/day E4+1.6 mg/kg/day PROG+136 ng/kg/day (n=13) E2, 10 mg/kg/day E4+1.6 mg/kg/day PROG+136 ng/kg/day E2 (n=16), 5 mg/kg/day E4+16 mg/kg/day PROG+136 ng/kg/day E2 (n=11), 10 mg/kg/day E4+16 mg/kg/day PROG+136 ng/kg/day groups (n=13). Intraperitoneal injections of the pups from study groups were performed from postnatal day 4 to postnatal day 7 inclusively. […]
as §1

[3] = tested on: S100B; test: Ex.3 neuroprotective HIE rat model: blood serum S100B ELISA; settings: PND14
Experimental: Blood was withdrawn, centrifuged and the serum samples were stored at −80° C.
ELISAs for detecting the brain damage markers S100B protein (Catalog# CSB-E08066r, Cusabio Biotech Co., LTD, China), and glial fibrillary acidic protein (GFAP) (Catalog# E90068Ra, Uscn Life sciences Inc., China) in blood serum samples were performed according to the manufacturers' recommendations.
Newborn rat pups were assigned to one of the following 6 groups from postnatal day 4: Sham group (n=24), Vehicle group (n=14), E4 1 mg/kg/per day group (n=11), E4 5 mg/kg/per day group (n=14), E4 10 mg/kg/per day group (n=14), or E4 50 mg/kg/per day group (n=19). From postnatal day 4, rat pups were intraperitoneally injected either vehicle (Vehicle group) or E4 (1, 5, 10, or 50 mg/kg/per day in accordance to the E4 group assignment) or neither vehicle nor E4 (Sham group). At day 7, 30 minutes after last injection, animals were anesthetized with isoflurane (induction, 3.0%; maintenance, 1.5%), and the rat pups from Vehicle and E4 groups passed through surgery encompassing left common carotid artery double ligation and cut. After the procedure, the pups were returned to their dams and were allowed to recover for 1 hour. The pups were then placed in the humidified hypoxic in vivo cabinet (CoyLab, Grass Lake, Mich., USA). […]

C[C@]12CC[C@@H]3c4ccc(O)cc4CC[C@H]3[C@@H]1[C@@H](O)[C@@H](O)[C@@H]2O [E4, 1,3,5(10)-estratrien-3,15α,16α,17β-tetrol]
percentage of DCX positively stained cells ([1]; 5 mg/kg/day E4, CA2/CA3): 15.09±12.17% | DCX positively stained cell percentage ([1]; 5 mg/kg/day E4, hippocampus): 59.73±3.44% | percentage of DCX positively stained cells [2]: 60.29±5.66% | concentration of S100B in blood serum ([3]; 10 mg/kg E4 ip PND4-7 before HI, vs sham, 5 mg/kg E4 and 50 mg/kg E4): significantly higher | concentration of S100B in blood serum ([3]; 50 mg/kg E4 ip PND4-7 before HI): 361 ± 32.914 pg/mL
